Measurements from paper PMC12703741, “Light-Activated Metal-Dependent Protein Degradation: A Heterobifunctional Ruthenium(II) Photosensitizer Targeting New Delhi Metallo-β-lactamase 1” (Journal of the American Chemical Society, 2025).
Where two headings read alike, the source gives them in different places.

Experiments:
NDM-1 [1] = biological target: T1, NDM-1 (Klebsiella pneumoniae, UniProt C7C422); type: biochemical; conditions: mixture of NDM-1 and BSA, 0-1000 μM, light 450 nm, 20 J cm^-2
Procedure: 1.8 Protein degradation via SDS-PAGE […]
were made at 10 mM in DMSO and then diluted to the appropriate concentration (1 mM – 10 µM) in 50 mM HEPES pH 7.5. The enzyme stocks (10 µM) were made up in 50 mM HEPES pH 7.5. The compound and enzyme stocks were mixed 1:1 and then pre -incubated for 10 min […]
‘light’ conditions the samples were transferred to a 96 well plate to provide irradiation. For a […]
(208 s, 96 mW cm-2). For a dose of 60 J cm-2 the plate was irradiated immediately (624 s, 96 […]
An aliquot of each sample was mixed with SDS-sample buffer (NuPAGE® LDS Sample buffer 4x) and heated to 95°C for 3 min. The samples were loaded on to the gel (NuPAGE® 4-12% Bis-tris gel) and run at 200V/125 mA for 30 min (1 gel per Gel box) or 60 min (2 gels per Gel box). SDS-PAGE gels were imaged using a Cytiva Amersham ImageQuant™ 800.
Densitometry of gel bands was measured and processed using Fiji (ImageJ).
1.8.3 BSA+NDM-1 selectivity experiment […]
nm, 20 J cm-2). Lane 1: Ladder; Lane 2: NDM-1 – no compound control (dark); Lane 3: BSA – no compound control (dark); Lane 4: NDM-1 + BSA - no compound control (dark); Lane 5: NDM-1 + BSA + 1 eq. compound (dark); Lane 6: NDM-1 + BSA + 10 eq. compound (dark); Lane 7: NDM-1 + BSA + 100 eq. compound (dark); Lane 8: NDM-1 + BSA - no compound control (light); Lane 9: NDM-1 + BSA + 1 eq. compound (light); Lane 10: NDM-1 + BSA + 10 eq. compound (light); Lane 11: NDM-1 + BSA + 100 eq. compound (light). […]
the dark (left) and under light irradiation (450 nm, 20 J cm-2).

[2] = Chromatographic LogD measurement; conditions: pH 7.4
Procedure: ChromLogD measurements were adapted from a previously reported procedure.3 The reversed
phase HPLC measurements were measured using an Agilent 1100 Series, equipped with an
Eclipse Plus C18 column 4.6 x 50 mm, using a gradient of 50 mM ammonium acetate/CH3CN
0 – 100% over 10 min. The mobile phase was adjusted to pH = 7.4 using concentrated sodium
The retention times (log k’) of seven commercially available compounds which cover the log
D range from -0.02 to 3.18 (theophylline, 5-phenyl-1H-tetrazole, benzimidazole, colchicine,
acetophenone, indole, propiophenone, butyrophenone, and benzophenone) were calculated
using the below equation, where tR is the retention time of the compound and t0 is the column
dead time, measured by injecting uracil (0.853 min).
The average retention times (tR) of two consecutive injections of sample were used to calculate
the log k’ values, which were then used to create the standard curve (Figure S1).

NDM-1 [3] = biological target: T1, NDM-1
[4] = 1O2 quantum yield by DPBF photooxidation; type: physicochemical; conditions: oxygenated methanol, 450 nm
Procedure: The 1O2 quantum yields were determined by tracking the photooxidation of 1,3-
fully aerated and exposed to LED irradiation at 450 nm (1 3 mW cm−2).
reaction mixture at 411 nm was recorded at one-second intervals.
cumulative absorbance changes at 411 nm versus cumulative irradiation time.

RAW264.7 = conditions: RAW
[5] = Photostability by UV-Vis in PBS; type: physicochemical; conditions: 10 μM, 450 nm
Procedure: Both complexes were stable up to and including 23 J cm^–2 (Figure S5). The lifetime of the excited state is one of the key factors which affect ROS generation. […] To quantify the generation of ^1O2 produced by the complexes, 1,3-diphenylisobenzofuran (DPBF) was used as a ^1O2 scavenger. […]
spectra of both compounds in PBS ( 10 μM) under light irradiation (450 nm, 23 J cm -2 over 240 […]
1.2.4 Electron Paramagnetic Resonance (EPR)
All EPR measurements were performed using a Bruker Magnettech spectrometer (ESR5000), Bruker (Germany), at room temperature. EPR samples were transferred to a 20 μL BLAUBRAND micropipette and spectra were recorded at 9.47 GHz microwave frequency, 2 mW microwave power, 100 kHz modulation frequency and 0.1 mT modulation amplitude. The field was scanned from 331.3 mT to 343.3 mT and a single scan was acquired.

NDM-1 [6] = biological target: T1, NDM-1; remark: listed apart in the source
Procedure: 1.4.1 Differential Scanning Fluorimetry (DSF)
DSF was performed using the Applied Biosystems QuantStudio 5 thermal cycler (Thermo
Fisher Scientific). Results were analysed and Tm determined with the Applied Biosystems
Protein Thermal Shift Software v1.4 and Tm values determined by the software. DSF was
conducted in sealed MicroAmp Optical 384-Well Reaction Plates (Thermo Fisher Scientific).
at a temperature ramp rate of 0.03 °C/s. For compound-protein interaction studies, a final
containing 5X SYPRO Orange (Thermo Fisher Scientific), 50 mM HEPES and 5%(v/v)
DMSO-d6. The final reaction volume was 20 µL per well. All DMSO compound stocks used
for DSF experiments were freshly prepared from solid stocks. All DSF measurements were
carried out in triplicate and the Tm reported is the mean value and the error is the standard
deviation. For all compounds tested, a no protein control run was included to see potential
changes in fluorescence resulting from a compound-dye interaction.

NDM-1 in E. coli NDM-1 = NDM-1 in E. coli NDM-1 (Klebsiella pneumoniae, UniProt C7C422); conditions: E. coli NDM-1, nitrocefin
Chain of NDM-1 in E. coli NDM-1 (C7C422 29-270 limits assumed): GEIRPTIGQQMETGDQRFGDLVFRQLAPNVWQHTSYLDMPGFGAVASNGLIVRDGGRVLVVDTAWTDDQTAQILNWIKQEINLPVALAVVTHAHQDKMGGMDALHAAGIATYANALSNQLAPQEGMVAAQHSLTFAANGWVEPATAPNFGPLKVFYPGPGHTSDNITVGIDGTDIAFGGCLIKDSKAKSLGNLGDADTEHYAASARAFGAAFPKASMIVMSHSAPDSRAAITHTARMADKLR
Procedure: shaking at 180 rpm for 18 hours. The overnight suspensions were subcultured (1:100) in fresh LB and incubated to yield an OD600 of 0.55-0.60. The were harvested and pelleted at 3500  g for 15 minutes at 4 °C. The pellets were washed with PBS and pelleted again under the same
conditions. The bacteria were then stored as pellets at 4 C until required for the assay and to
be used within 5 hours. To prepare the bacteria fo r the assay, a pellet was resuspended in an
adjusted volume of fresh PBS to achieve an OD600 ≈ 5.0 and then kept at 4 C for 1 hr before
being used. The bacteria were then diluted to OD600 ≈ 2.0 in fresh PBS and used immediately.
inhibitor control, and one row of Bacteria Buffer B (50 µL) which served as a no-bacteria
control (providing five rows in total). Bacteria stock (OD600 ≈ 2.0, 40 µL, final concentration
of bacteria in well = OD600 ≈ 0.8) was added to each well of the first four rows, the plate was
sealed, and the samples then pre-incubated for 60 min under either ‘dark’ or ‘light’ conditions
Under ‘dark’ conditions, the plate was left sealed in a
substrate in well = 100 µM) was conducted manually and then the plate immediately resealed
substrate had been completely consumed. Method conditions are as follows: cycle time = 100

T1 sequence (C7C422 31-270 limits assumed): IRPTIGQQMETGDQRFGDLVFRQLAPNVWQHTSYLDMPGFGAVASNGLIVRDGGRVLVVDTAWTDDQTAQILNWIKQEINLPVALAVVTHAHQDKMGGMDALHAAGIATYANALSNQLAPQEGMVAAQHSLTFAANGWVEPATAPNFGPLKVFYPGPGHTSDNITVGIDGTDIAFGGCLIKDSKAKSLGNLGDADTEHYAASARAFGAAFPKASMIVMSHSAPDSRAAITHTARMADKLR

## F[P-](F)(F)(F)(F)F.F[P-](F)(F)(F)(F)F.[Ru+2].c1ccc(-c2ccccn2)nc1.c1ccc(-c2ccccn2)nc1.c1ccc(-n2cnc3c4cccnc4c4ncccc4c32)cc1 [Ru2, [Ru(2,2'-bipyridine)2(1-phenyl-imidazo[4,5,f][1,10]phenanthroline)](PF6)2]
E. coli NDM-1; E. coli NDM-1, dark and light samples equivalent
  MIC: >160 µM
E. coli NDM-1; compound 5 μM, dark
  Fold change in Meropenem MIC: 0 fold
E. coli NDM-1; compound 5 μM, light 450 nm, 60 J cm^-2
  Fold change in Meropenem MIC: 0 fold
E. coli NDM-1; compound 10 μM, dark
  Fold change in Meropenem MIC: 0 fold
E. coli NDM-1; compound 10 μM, light 450 nm, 60 J cm^-2
  Fold change in Meropenem MIC: 0 fold
E. coli NDM-1; compound 20 μM, dark
  Fold change in Meropenem MIC: 0 fold
E. coli NDM-1; compound 20 μM, light 450 nm, 60 J cm^-2
  Fold change in Meropenem MIC: 0 fold
E. coli NDM-1; compound 40 μM, dark
  Fold change in Meropenem MIC: 0 fold
E. coli NDM-1; compound 40 μM, light 450 nm, 60 J cm^-2
  Fold change in Meropenem MIC: 0 fold
E. coli NDM-1; compound 80 μM, dark
  Fold change in Meropenem MIC: 0 fold
E. coli NDM-1; compound 80 μM, light 450 nm, 60 J cm^-2
  Fold change in Meropenem MIC: 0 fold
HCT116; HCT116, 24 h
  LD50: > 50 µM
HCT116; HCT116, 48 h
  LD50: > 50 µM
NDM-1 [1]
  Degradation of NDM-1 vs BSA (band intensity): both NDM-1 and BSA band intensities were diminished
[2]
  ChromLogD: 1.21
NDM-1 [3]; 450 nm, 20 J cm^-2
  Fold difference in IC50(light) between Ru1 and untargeted control Ru2: approximately 25 fold
NDM-1 [3]; read-out: IC50(light), recombinant NDM-1, nitrocefin, light 450 nm, 20 J cm^-2
  IC50: 5.6 ± 0.5 µM
NDM-1 [3]; recombinant NDM-1, nitrocefin, dark
  IC50(dark): no inhibition
[4]
  1O2 quantum yield (ΦΔ): 0.87
HEK293T; 24 h
  LD50: > 50 µM
HEK293T; 48 h
  LD50: > 50 µM
HeLa; 24 h
  LD50: > 50 µM
HeLa; 48 h
  LD50: > 50 µM
RAW264.7; 24 h
  LD50: > 50 µM
RAW264.7; 48 h
  LD50: > 50 µM
HaCaT; 24 h
  LD50: > 50 µM
HaCaT; 48 h
  LD50: > 50 µM
hTERT RPE-1; RPE1, 24 h
  LD50: > 50 µM
hTERT RPE-1; RPE1, 48 h
  LD50: > 50 µM
[5]
  Light dose up to which complex is stable: ≥ 23 J cm^–2
HepG2; HepG2, 24 h
  LD50: > 50 µM
HepG2; HepG2, 48 h
  LD50: > 50 µM
NDM-1 [6]; compound 4 μM
  Change in melting temperature (ΔT) of NDM-1: 0.0 °C
NDM-1 [6]; compound 16 μM
  Change in melting temperature (ΔT) of NDM-1: 0.0 °C
NDM-1 [6]; compound 63 μM
  Change in melting temperature (ΔT) of NDM-1: 0.0 °C
NDM-1 [6]; in words
  Effect on melting temperature of NDM-1: no effect
NDM-1 in E. coli NDM-1; dark
  IC50(dark): no inhibition
NDM-1 in E. coli NDM-1; light 450 nm, 60 J cm^-2
  IC50(light): no inhibition
